Test results from PubChem BioAssay AID2060887 (Molecular Pharmacology Branch, DTP, NCI, 2025).

Tested on: 782815-120-R-J1-PDC complex spheroid viability
Assay: Anticancer human tumor 782815-120-R-J1-PDC patient-derived colon adenocarcinoma cell line growth inhibition [RAS]
Settings: for IC50: curve of first compound; for viability, T/C: stronger effect = lower value
Method in brief: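 Multi-cell-type spheroids: tumor cells plus HUVEC endothelial cells and mesenchymal stem cells. RAS-pathway inhibitors were combined with targeted agents, each dosed in half-log steps down from clinical Cmax, or from 10 microM when Cmax was unknown.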

[1] = second compound 0.00316 µM, first compound 0.0316 µM
[2] = second compound 0.00316 µM, first compound 0.1 µM
[3] = second compound 0.00316 µM, first compound 0.316 µM
[4] = second compound 0.00316 µM, first compound 1 µM
[5] = second compound 0.00316 µM, first compound 3.16 µM
[6] = second compound 0.00316 µM, first compound 10 µM
[7] = second compound 0.01 µM, first compound 0.0316 µM
[8] = second compound 0.01 µM, first compound 0.1 µM
[9] = second compound 0.01 µM, first compound 0.316 µM
[10] = second compound 0.01 µM, first compound 1 µM
[11] = second compound 0.01 µM, first compound 3.16 µM
[12] = second compound 0.01 µM, first compound 10 µM
[13] = second compound 0.0316 µM, first compound 0.0316 µM
[14] = second compound 0.0316 µM, first compound 0.1 µM
[15] = second compound 0.0316 µM, first compound 0.316 µM
[16] = second compound 0.0316 µM, first compound 1 µM
[17] = second compound 0.0316 µM, first compound 3.16 µM
[18] = second compound 0.0316 µM, first compound 10 µM
[19] = second compound 0.1 µM, first compound 0.0316 µM
[20] = second compound 0.1 µM, first compound 0.1 µM
[21] = second compound 0.1 µM, first compound 0.316 µM
[22] = second compound 0.1 µM, first compound 1 µM
[23] = second compound 0.1 µM, first compound 3.16 µM
[24] = second compound 0.1 µM, first compound 10 µM
[25] = second compound 0.316 µM, first compound 0.0316 µM
[26] = second compound 0.316 µM, first compound 0.1 µM
[27] = second compound 0.316 µM, first compound 0.316 µM
[28] = second compound 0.316 µM, first compound 1 µM
[29] = second compound 0.316 µM, first compound 3.16 µM
[30] = second compound 0.316 µM, first compound 10 µM
[31] = second compound 1 µM, first compound 0.0316 µM
[32] = second compound 1 µM, first compound 0.1 µM
[33] = second compound 1 µM, first compound 0.316 µM
[34] = second compound 1 µM, first compound 1 µM
[35] = second compound 1 µM, first compound 3.16 µM
[36] = second compound 1 µM, first compound 10 µM
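Further: spheroids exposed to compounds for 7 days before reading.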
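Wherever viability, T/C is given: 100% = DMSO vehicle control viability.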

SMILES: CC1(O)CCCC1n1c(=O)c(C(F)F)cc2cnc(NC3CCN(S(C)(=O)=O)CC3)nc21 (stereo not given) + C=CC(=O)N1CCN(c2nc(OCC3CCCN3C)nc3c(F)c(-c4nc(N)cc(C)c4C(F)(F)F)c(Cl)cc23)C(C)C1
- IC50 (second compound 0.00316 µM): 3640 nM
- IC50 (second compound 0.01 µM): 2360 nM
- IC50 (second compound 0.0316 µM): 3380 nM
- IC50 (second compound 0.1 µM): 3610 nM
- IC50 (second compound 0.316 µM): 3450 nM
- IC50 (second compound 1 µM): 786 nM
- viability, T/C [1]: 61.5%
- viability, T/C [2]: 53%
- viability, T/C [3]: 54.5%
- viability, T/C [4]: 57.6%
- viability, T/C [5]: 53.8%
- viability, T/C [6]: 22%
- viability, T/C [7]: 72.5%
- viability, T/C [8]: 52.3%
- viability, T/C [9]: 53.3%
- viability, T/C [10]: 51.8%
- viability, T/C [11]: 52.1%
- viability, T/C [12]: 19%
- viability, T/C [13]: 58.7%
- viability, T/C [14]: 56.4%
- viability, T/C [15]: 49.2%
- viability, T/C [16]: 55.1%
- viability, T/C [17]: 51.8%
- viability, T/C [18]: 22.1%
- viability, T/C [19]: 65.4%
- viability, T/C [20]: 50.7%
- viability, T/C [21]: 51.3%
- viability, T/C [22]: 52.3%
- viability, T/C [23]: 54.2%
- viability, T/C [24]: 18.6%
- viability, T/C [25]: 56.4%
- viability, T/C [26]: 52.8%
- viability, T/C [27]: 48.9%
- viability, T/C [28]: 50.9%
- viability, T/C [29]: 53.4%
- viability, T/C [30]: 19.8%
- viability, T/C [31]: 61%
- viability, T/C [32]: 55.7%
- viability, T/C [33]: 47.5%
- viability, T/C [34]: 46.7%
- viability, T/C [35]: 44.9%
- viability, T/C [36]: 18.3%

SMILES: CCC(CC)c1cc(NC2CCC(N)C2)n2nccc2n1 (stereo not given) + C=CC(=O)N1CCN(c2nc(OCC3CCCN3C)nc3c(F)c(-c4nc(N)cc(C)c4C(F)(F)F)c(Cl)cc23)C(C)C1
- IC50 (second compound 0.00316 µM): 2280 nM
- IC50 (second compound 0.01 µM): 2320 nM
- IC50 (second compound 0.0316 µM): 2450 nM
- IC50 (second compound 0.1 µM): 2160 nM
- IC50 (second compound 0.316 µM): 2540 nM
- IC50 (second compound 1 µM): 2280 nM
- viability, T/C [1]: 108%
- viability, T/C [2]: 111%
- viability, T/C [3]: 106%
- viability, T/C [4]: 98.3%
- viability, T/C [5]: 31%
- viability, T/C [6]: 1.4%
- viability, T/C [7]: 105%
- viability, T/C [8]: 107%
- viability, T/C [9]: 108%
- viability, T/C [10]: 104%
- viability, T/C [11]: 30.4%
- viability, T/C [12]: 1.14%
- viability, T/C [13]: 101%
- viability, T/C [14]: 103%
- viability, T/C [15]: 95.8%
- viability, T/C [16]: 115%
- viability, T/C [17]: 34.6%
- viability, T/C [18]: 1.3%
- viability, T/C [19]: 102%
- viability, T/C [20]: 98.2%
- viability, T/C [21]: 104%
- viability, T/C [22]: 98.4%
- viability, T/C [23]: 26.2%
- viability, T/C [24]: 1.7%
- viability, T/C [25]: 103%
- viability, T/C [26]: 101%
- viability, T/C [27]: 95.5%
- viability, T/C [28]: 106%
- viability, T/C [29]: 37.9%
- viability, T/C [30]: 1.49%
- viability, T/C [31]: 98%
- viability, T/C [32]: 104%
- viability, T/C [33]: 103%
- viability, T/C [34]: 100%
- viability, T/C [35]: 29.9%
- viability, T/C [36]: 2.19%

SMILES: Cc1nc(N2CCC3(CC2)COC(C)C3N)c(CO)nc1Sc1ccnc(N)c1Cl (stereo not given) + C=CC(=O)N1CCN(c2nc(OCC3CCCN3C)nc3c(F)c(-c4nc(N)cc(C)c4C(F)(F)F)c(Cl)cc23)C(C)C1
- IC50 (second compound 0.00316 µM): > 10000 nM
- IC50 (second compound 0.01 µM): > 10000 nM
- IC50 (second compound 0.0316 µM): > 10000 nM
- IC50 (second compound 0.1 µM): > 10000 nM
- IC50 (second compound 0.316 µM): > 10000 nM
- IC50 (second compound 1 µM): > 10000 nM
- viability, T/C [1]: 92.3%
- viability, T/C [2]: 107%
- viability, T/C [3]: 97.4%
- viability, T/C [4]: 96%
- viability, T/C [5]: 106%
- viability, T/C [6]: 101%
- viability, T/C [7]: 103%
- viability, T/C [8]: 115%
- viability, T/C [9]: 96.2%
- viability, T/C [10]: 108%
- viability, T/C [11]: 104%
- viability, T/C [12]: 100%
- viability, T/C [13]: 101%
- viability, T/C [14]: 98.9%
- viability, T/C [15]: 97.8%
- viability, T/C [16]: 97.3%
- viability, T/C [17]: 95.1%
- viability, T/C [18]: 101%
- viability, T/C [19]: 98.7%
- viability, T/C [20]: 110%
- viability, T/C [21]: 98.1%
- viability, T/C [22]: 105%
- viability, T/C [23]: 104%
- viability, T/C [24]: 97.9%
- viability, T/C [25]: 103%
- viability, T/C [26]: 102%
- viability, T/C [27]: 103%
- viability, T/C [28]: 105%
- viability, T/C [29]: 108%
- viability, T/C [30]: 102%
- viability, T/C [31]: 98.6%
- viability, T/C [32]: 102%
- viability, T/C [33]: 95.8%
- viability, T/C [34]: 100%
- viability, T/C [35]: 99.9%
- viability, T/C [36]: 104%

SMILES: NC1c2ccccc2OC12CCN(c1cnc3c(N4CCCc5ncccc54)n[nH]c3n1)CC2 (stereo not given) + C=CC(=O)N1CCN(c2nc(OCC3CCCN3C)nc3c(F)c(-c4nc(N)cc(C)c4C(F)(F)F)c(Cl)cc23)C(C)C1
- IC50 (second compound 0.00316 µM): > 10000 nM
- IC50 (second compound 0.01 µM): > 10000 nM
- IC50 (second compound 0.0316 µM): > 10000 nM
- IC50 (second compound 0.1 µM): > 10000 nM
- IC50 (second compound 0.316 µM): > 10000 nM
- IC50 (second compound 1 µM): > 10000 nM
- viability, T/C [1]: 94.4%
- viability, T/C [2]: 110%
- viability, T/C [3]: 95.4%
- viability, T/C [4]: 93.8%
- viability, T/C [5]: 98.2%
- viability, T/C [6]: 84.4%
- viability, T/C [7]: 98.4%
- viability, T/C [8]: 95.6%
- viability, T/C [9]: 89%
- viability, T/C [10]: 91.3%
- viability, T/C [11]: 93.8%
- viability, T/C [12]: 82.8%
- viability, T/C [13]: 96.4%
- viability, T/C [14]: 107%
- viability, T/C [15]: 98.3%
- viability, T/C [16]: 100%
- viability, T/C [17]: 99.7%
- viability, T/C [18]: 71.9%
- viability, T/C [19]: 95.1%
- viability, T/C [20]: 105%
- viability, T/C [21]: 91.7%
- viability, T/C [22]: 107%
- viability, T/C [23]: 95.8%
- viability, T/C [24]: 79.7%
- viability, T/C [25]: 98%
- viability, T/C [26]: 90.9%
- viability, T/C [27]: 88.5%
- viability, T/C [28]: 100%
- viability, T/C [29]: 94.3%
- viability, T/C [30]: 74.6%
- viability, T/C [31]: 108%
- viability, T/C [32]: 86.4%
- viability, T/C [33]: 103%
- viability, T/C [34]: 93.3%
- viability, T/C [35]: 91.8%
- viability, T/C [36]: 77.8%

SMILES: Nc1ccn(C2OC(CO)C(O)C2(F)F)c(=O)n1 (stereo not given) + C=CC(=O)N1CCN(c2nc(OCC3CCCN3C)nc3c(F)c(-c4nc(N)cc(C)c4C(F)(F)F)c(Cl)cc23)C(C)C1
- IC50 (second compound 0.00316 µM): 62.7 nM
- IC50 (second compound 0.01 µM): 53.2 nM
- IC50 (second compound 0.0316 µM): 58.9 nM
- IC50 (second compound 0.1 µM): 53.6 nM
- IC50 (second compound 0.316 µM): 60.4 nM
- IC50 (second compound 1 µM): 61.4 nM
- viability, T/C (second compound 0.00316 µM, first compound 0.00316 µM): 90.9%
- viability, T/C (second compound 0.00316 µM, first compound 0.01 µM): 81.2%
- viability, T/C [1]: 56.9%
- viability, T/C [2]: 46.9%
- viability, T/C [3]: 24.7%
- viability, T/C [4]: 19.1%
- viability, T/C (second compound 0.01 µM, first compound 0.00316 µM): 93.9%
- viability, T/C (second compound 0.01 µM, first compound 0.01 µM): 82%
- viability, T/C [7]: 57.8%
- viability, T/C [8]: 40.7%
- viability, T/C [9]: 23.6%
- viability, T/C [10]: 21%
- viability, T/C (second compound 0.0316 µM, first compound 0.00316 µM): 99%
- viability, T/C (second compound 0.0316 µM, first compound 0.01 µM): 83.5%
- viability, T/C [13]: 57.9%
- viability, T/C [14]: 43.6%
- viability, T/C [15]: 27.1%
- viability, T/C [16]: 21.7%
- viability, T/C (second compound 0.1 µM, first compound 0.00316 µM): 93.3%
- viability, T/C (second compound 0.1 µM, first compound 0.01 µM): 85.7%
- viability, T/C [19]: 54.3%
- viability, T/C [20]: 41.3%
- viability, T/C [21]: 31.2%
- viability, T/C [22]: 21.5%
- viability, T/C (second compound 0.316 µM, first compound 0.00316 µM): 92.3%
- viability, T/C (second compound 0.316 µM, first compound 0.01 µM): 77.6%
- viability, T/C [25]: 61.6%
- viability, T/C [26]: 40.9%
- viability, T/C [27]: 29.4%
- viability, T/C [28]: 21.4%
- viability, T/C (second compound 1 µM, first compound 0.00316 µM): 92%
- viability, T/C (second compound 1 µM, first compound 0.01 µM): 85.8%
- viability, T/C [31]: 58.8%
- viability, T/C [32]: 43%
- viability, T/C [33]: 29.2%
- viability, T/C [34]: 23.1%
